{
  "source": "patent US4565805A",
  "about": "“Pharmaceutical preparation for the treatment of peptic ulcer” (priority 1984, dated 1986)",
  "key": {"[1]": {"tested_on": "patients suffering from duodenal peptic ulcer", "method": "The preparation was tested in clinic on 40 patients suffering from duodenal peptic ulcer. The control groups consisted of 20 patients treated with cymethidin in the daily dose of 800 mg. Only male patients were subjected to the treatment, their age varied from 22 to 56 years. The duration of the disease was different: from newly detected ulcer to 28 years of the disease. The diagnosis of the peptic ulcer was made on the basis of generally accepted clinical tests with an obligatory use of the gastroduodenoscopy. The gastroduodenoscopy was carried out prior to administration of the preparation and 14, 21 and 28 days thereafter (the two latter endoscopy were carried out only in the use of non-scarring ulcers).\nThe preparation was administered intramuscularly in a dose of 10-15 μg/kg in a 0.9% aqueous solution of sodium chloride twice a day (in the moring at 7 a.m. and in the evening at 19 p.m.). The treatment course was 14-28 days, the course dose of the preparation was 30-60 mg. Apart from the preparation, the patients were given no additional pharmaceuticals, antacids were also excluded."}, "[2]": {"tested_on": "experimental duodenal ulcers (cystamine) in rats", "details": "preparation 12 μg/kg twice a day, cymethidin 7 mg/kg a day", "description": "170 rats were used. […] The animals of the control group were injected with a physiological solution. The slaughter of the animals was effected in groups of 10 animals within different periods after the beginning of the experiment."}},
  "note": "Where two headings read alike, the source gives them in different places.",
  "data": [
    {"smiles": "CN/C(=N\\CCSCc1nc[nH]c1C)NC#N", "note": "[cymethidin]", "values": [
      {"measurement": "patients with pains still noted", "setting": "[1]; by the end of the 2-nd week, cymethidin 800 mg daily", "value": 35, "unit": "%"},
      {"measurement": "patients with healed ulcer", "setting": "[1]; by the end of the 3-rd week, preparation 10-15 μg/kg i.m. twice a day, cymethidin 200 mg 4 times a day", "value": 65, "unit": "%"},
      {"measurement": "ulcer index", "setting": "[2]; 24 hrs, control 3.1", "value": 1.6},
      {"measurement": "ulcer index", "setting": "[2]; 48 hrs, control 3.3", "value": 1.6},
      {"measurement": "ulcer index", "setting": "[2]; 72 hrs, control 3.2", "value": 1.5},
      {"measurement": "ulcer index", "setting": "[2]; 7 ds, control 1.8", "value": 0.8},
      {"measurement": "ulcer index", "setting": "[2]; 14 ds, control 1.2", "value": 0},
      {"measurement": "time of complete healing of ulcers", "setting": "[2]", "value": "by the end of the second week"}
    ]}
  ]
}
